# Non-standard residues stand in square brackets, D forms with d. No end group written: not given here. *: point of attachment. FITC = O=C1OC2(c3ccc(O)cc3Oc3cc(O)ccc32)c2ccc(NC(=S)*)cc21; Sar = CNCC(=O)O
# Tested on: 5-helix bundle (5HB) protein mimicking hRSV fusion protein F
# Assay: 5HB-based competitive fluorescence polarization (FP) binding assay
# Set-up: species or system human respiratory syncytial virus (hRSV)
# Settings: 200 µM peptide; inhibition of Fl-C35 tracer (5 nM) binding to 5HB (20 nM); FP buffer 20 mM PBS pH 7.4, 500 mM NaCl, 0.01% Tween-20, 0.05 mg/ml bovine gamma globulin; 1 h + 30 min at room temperature; ex 485/em 530 nm
# Description: Competitive FP binding assays of the C20 derivatives were carried out as previously described. Briefly, a 5-helix bundle (5HB) protein was designed to mimic a post-fusion structure of fusion protein F (6-helix bundle) and provide a specific binding site for screening potential human respiratory syncytial virus (hRSV) entry inhibitors. Using a 5HB protein as a target protein and a fluorescently labeled 35 amino acid-long peptide (Fl-C35, sequence shown in Table S1) as a tracer, we performed a competitive FP assay to evaluated the binding affinity of each C20 analogue prepared in this study. In each well of a black 96-well plate (Corning Inc. Lowell, MA, USA), 20 nM of the 5HB with increasing concentrations of each peptomer in FP buffer (20 mM PBS at pH 7.4, 500 mM NaCl, 0.01% (v/v) Tween-20, and 0.05 mg/ml bovine gamma globulin) in a final volume of 185 µL was incubated for 1h at room temperature. Fl-C35 was then added to a final concentration of 5 nM followed by 30 min incubation at room temperature. The FP responses were monitored using a Synergy4 plate reader (Biotek, Winooski, VT, USA) with an excitation wavelength of 485 nm and an emission wavelength of 530 nm. The percentage of inhibition (% Inhibition) was calculated from the equation: % inhibition = 100×[1-(mP-mPf)/(mPb-mPf)]. Unbound Fl-C35 (mPf), bound Fl-C35 (mPb) and the bound inhibitor to the 5HB (mP) are used accordingly.
# Sample preparation for FP measurements.
row,Substance,% Inhibition at 200 µM
1,"ISQVNEKINQSLAFIRKSDE [Peptide C20, 20 amino acid-long peptide derived from the 6th helix of hRSV fusion protein F]",100%
2,"ISQVNEKINQSLAAIRKSDE [Peptide A14, alanine-substituted C20 peptide]",25.00%
3,"ISQVNEAINQSLAFIRKSDE [Peptide A7, alanine-substituted C20 peptide]",100.00%
4,"ISQVNEKINPSLAFIRKSDE [Peptide P10, proline-substituted C20 peptide]",9.26%
5,"ISQVNEKINQSL[Sar]FIRKSDE [Sar13, sarcosine-substituted C20 peptide]",4.63%
6,"ISQVNEKINQSLPFIRKSDE [Peptide P13, proline-substituted C20 peptide]",10.19%
7,"ISQ[Sar]NEKINQSLAFIRKSDE [Sar4, sarcosine-substituted C20 peptide]",1.85%
8,"ISQVNEKINQSLAF[Sar]RKSDE [Sar15, sarcosine-substituted C20 peptide]",30.56%
9,"ISQVNE[Sar]INQSLAFIRKSDE [Sar7, sarcosine-substituted C20 peptide]",100.00%
10,"ISQVNEKINQS[Sar]AFIRKSDE [Sar12, sarcosine-substituted C20 peptide]",7.41%
11,"ISQVNEKINQSLAFIRKADE [Peptide A18, alanine-substituted C20 peptide]",36.81%
12,"ISQVNEKINQSPAFIRKSDE [Peptide P12, proline-substituted C20 peptide]",22.22%
13,"ISQVAEKINQSLAFIRKSDE [Peptide A5, alanine-substituted C20 peptide]",25.90%
14,"[Sar]SQVNEKINQSLAFIRKSDE [Sar1, sarcosine-substituted C20 peptide]",15.74%
15,"ISPVNEKINQSLAFIRKSDE [Peptide P3, proline-substituted C20 peptide]",14.81%
16,"ISQVPEKINQSLAFIRKSDE [Peptide P5, proline-substituted C20 peptide]",34.26%
17,"ISQV[Sar]EKINQSLAFIRKSDE [Sar5, sarcosine-substituted C20 peptide]",23.15%
18,"ISQVNEKINQSLAFIRK[Sar]DE [Sar18, sarcosine-substituted C20 peptide]",21.30%
19,"ISQVNPKINQSLAFIRKSDE [Peptide P6, proline-substituted C20 peptide]",26.85%
20,"ISQVNEKINQSLAFIRKSD[Sar] [Sar20, sarcosine-substituted C20 peptide]",100.00%
21,"ISQVNEKINQSAAFIRKSDE [Peptide A12, alanine-substituted C20 peptide]",43.63%

row,Substance,% Inhibition at 200 µM
1,"ISQVNEKINQPLAFIRKSDE [Peptide P11, proline-substituted C20 peptide]",9.26%
2,"ISAVNEKINQSLAFIRKSDE [Peptide A3, alanine-substituted C20 peptide]",27.27%
3,"ISQVNEKINQSLAFIRKS[Sar]E [Sar19, sarcosine-substituted C20 peptide]",59.26%
4,"ISQVNEKINQSLAFIPKSDE [Peptide P16, proline-substituted C20 peptide]",4.63%
5,"ISQVNEKANQSLAFIRKSDE [Peptide A8, alanine-substituted C20 peptide]",13.63%
6,"ISQVNEKINQSLAFIRASDE [Peptide A17, alanine-substituted C20 peptide]",100.00%
7,"ISQVNEK[Sar]NQSLAFIRKSDE [Sar8, sarcosine-substituted C20 peptide]",26.85%
8,"ISQVNEKINQSLAFARKSDE [Peptide A15, alanine-substituted C20 peptide]",21.36%
9,"IS[Sar]VNEKINQSLAFIRKSDE [Sar3, sarcosine-substituted C20 peptide]",11.11%
10,"ISQVN[Sar]KINQSLAFIRKSDE [Sar6, sarcosine-substituted C20 peptide]",108.33%
11,"ISQVNEKINQALAFIRKSDE [Peptide A11, alanine-substituted C20 peptide]",33.18%
12,"ISQVNEKINQSLA[Sar]IRKSDE [Sar14, sarcosine-substituted C20 peptide]",4.63%
13,"ISQVNEKPNQSLAFIRKSDE [Peptide P8, proline-substituted C20 peptide]",11.11%
14,"IPQVNEKINQSLAFIRKSDE [Peptide P2, proline-substituted C20 peptide]",23.15%
15,"ISQVNAKINQSLAFIRKSDE [Peptide A6, alanine-substituted C20 peptide]",89.09%
16,"I[Sar]QVNEKINQSLAFIRKSDE [Sar2, sarcosine-substituted C20 peptide]",22.22%
17,"ISQVNEKINQSLAFIRKSPE [Peptide P19, proline-substituted C20 peptide]",84.26%
18,"ASQVNEKINQSLAFIRKSDE [Peptide A1, alanine-substituted C20 peptide]",15.45%
19,"{FITC}-YDPLVFPSDEFDASISQVNEKINQSLAFIRKSDEL [Fl-C35, fluorescently labeled 35 amino acid-long peptide used as tracer, reference compound]",100%
20,"ISQVNEKIPQSLAFIRKSDE [Peptide P9, proline-substituted C20 peptide]",33.33%
21,"ISQVNEKINQSLAPIRKSDE [Peptide P14, proline-substituted C20 peptide]",13.89%

row,Substance,% Inhibition at 200 µM
1,"ISQVNEKINQ[Sar]LAFIRKSDE [Sar11, sarcosine-substituted C20 peptide]",13.89%
2,"ISQVNEKI[Sar]QSLAFIRKSDE [Sar9, sarcosine-substituted C20 peptide]",13.89%
3,"ISQPNEKINQSLAFIRKSDE [Peptide P4, proline-substituted C20 peptide]",12.96%
4,"ISQVNEKINQSLAFI[Sar]KSDE [Sar16, sarcosine-substituted C20 peptide]",0.00%
5,"PSQVNEKINQSLAFIRKSDE [Peptide P1, proline-substituted C20 peptide]",26.85%
6,"ISQVNEKINQSLAFIRKSDA [Peptide A20, alanine-substituted C20 peptide]",29.09%
7,"ISQVNEKINQSLAFIRPSDE [Peptide P17, proline-substituted C20 peptide]",6.48%
8,"ISQVNEKINQSLAFPRKSDE [Peptide P15, proline-substituted C20 peptide]",4.63%
9,"ISQVNEKINQSLAFIAKSDE [Peptide A16, alanine-substituted C20 peptide]",53.63%
10,"ISQVNEKINQSLAFIR[Sar]SDE [Sar17, sarcosine-substituted C20 peptide]",84.26%
11,"ISQVNEKINQSLAFIRKSDE [Peptide A13, alanine scan entry for position 13]",100.00%
12,"ISQVNEKIN[Sar]SLAFIRKSDE [Sar10, sarcosine-substituted C20 peptide]",21.30%
13,"ISQANEKINQSLAFIRKSDE [Peptide A4, alanine-substituted C20 peptide]",40.00%
14,"ISQVNEKINQSLAFIRKPDE [Peptide P18, proline-substituted C20 peptide]",0.93%
15,"ISQVNEKIAQSLAFIRKSDE [Peptide A9, alanine-substituted C20 peptide]",30.90%
16,"ISQVNEKINASLAFIRKSDE [Peptide A10, alanine-substituted C20 peptide]",11.36%
17,"ISQVNEKINQSLAFIRKSAE [Peptide A19, alanine-substituted C20 peptide]",31.81%
18,"ISQVNEKINQSLAFIRKSDP [Peptide P20, proline-substituted C20 peptide]",31.48%
19,"IAQVNEKINQSLAFIRKSDE [Peptide A2, alanine-substituted C20 peptide]",23.63%
